Test results reported in article PMC11467761 (RSC Medicinal Chemistry, 2024).

Columns and labels:
Caco-2 cell monolayers = assay: Caco-2 cell permeability; format: in vitro ADME, human; conditions: polarized Caco-2 cell monolayers
[1] = test system: human induced pluripotent stem cell (iPSC)-derived cardiomyocytes, iCell Cardiomyocytes2; assay: Cardiac safety assay, Ca2+ oscillation in iPSC-derived cardiomyocytes; conditions: 60 minutes, n = 3

Compound	Caco-2 cell permeability Class (Caco-2 cell monolayers)	Effect on pulse waveforms and beat intervals (Ca2+ oscillation) ([1]; 0.2 μM)	Effect on pulse waveforms and beat intervals (Ca2+ oscillation) ([1]; 2 μM)	Effect on pulse waveforms and beat intervals (Ca2+ oscillation) ([1]; 20 μM)
O=C(C1CCCCC1)N1CC(=O)N2CCc3ccccc3C2C1 (centres unmarked) [PZQ, praziquantel, reference compound]	High			
O=C(C1CCCCC1)N1CON2CCc3ccccc3C2C1 (centres unmarked) [Compound 4]	High	did not affect the pulse waveforms and beat intervals	the pulse waveforms remained unchanged, but a slight shortening of beat intervals was observed for up to 30 minutes post-addition	did not alter the pulse waveforms, but resulted in shortened beat intervals
